Measurements published in PMC6858373 (Scientific Reports, 2019).
Read-outs that look alike come from different tables or passages of the source.

Columns and labels:
Clone V cells = conditions: human, 16 h, 30 µM
in vitro = conditions: human
[1] = biological target: T1, FGF14:Nav1.6 C-tail complex (Homo sapiens, UniProt Q92915+Q9UQD0); assay: Split-luciferase complementation assay (LCA) in Clone V double stable HEK293 cells; format: cell-based; conditions: for Split Luciferase Assay Z-score Set 1 / Split Luciferase Assay % Lum Set 1 / Split Luciferase Assay Z-score Set 2 / Split Luciferase Assay %Lum Set 2: CC_NCI screening; for Split Luciferase Assay Z-score Set 1 / Split Luciferase Assay % Lum Set 1: biological replicate Set 1; for Split Luciferase Assay Z-score Set 1 / Split Luciferase Assay Z-score Set 2: normalized to on-plate 0.3% DMSO controls; for Split Luciferase Assay % Lum Set 1 / Split Luciferase Assay %Lum Set 2: normalized to on-plate 0.3% DMSO controls (n=16 per plate); for Split Luciferase Assay Z-score Set 2 / Split Luciferase Assay %Lum Set 2: biological replicate Set 2; for Split Luciferase Assay %Lum Avg: average of Set 1 and Set 2, normalized to 0.3% DMSO controls
T1 construct: polymerase chain reaction (PCR) amplification of the FGF14 open reading frame (nt 1–855); C-terminal fragment of Nav1.6 (amino acids 1763–1976) fused with CD4ΔC-tail (amino acids 1–395); expressed in transfected cells
T1 sequence (Q92915 1-252 isoform Q92915-2): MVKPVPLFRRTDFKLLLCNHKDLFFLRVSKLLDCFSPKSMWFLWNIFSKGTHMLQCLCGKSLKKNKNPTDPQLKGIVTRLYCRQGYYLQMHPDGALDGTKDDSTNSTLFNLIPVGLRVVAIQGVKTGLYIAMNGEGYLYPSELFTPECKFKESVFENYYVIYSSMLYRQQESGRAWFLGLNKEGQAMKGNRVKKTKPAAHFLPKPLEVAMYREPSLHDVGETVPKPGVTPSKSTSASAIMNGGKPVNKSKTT
T1 sequence (Q9UQD0 1763-1976 limits assumed): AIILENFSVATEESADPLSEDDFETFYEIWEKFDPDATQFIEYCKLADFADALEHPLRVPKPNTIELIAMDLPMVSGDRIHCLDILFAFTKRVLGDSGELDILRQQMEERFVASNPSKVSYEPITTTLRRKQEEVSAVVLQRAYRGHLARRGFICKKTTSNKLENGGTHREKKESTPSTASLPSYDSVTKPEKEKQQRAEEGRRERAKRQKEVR

[2] = biological target: full-length P. pyralis luciferase (Photinus pyralis, UniProt P08659, K549A/L550V/N119G/N50D/S548I); format: cell-based
Sequence of full-length P. pyralis luciferase (P08659 whole entry N50D/N119G/S548I/K549A/L550V, looked up): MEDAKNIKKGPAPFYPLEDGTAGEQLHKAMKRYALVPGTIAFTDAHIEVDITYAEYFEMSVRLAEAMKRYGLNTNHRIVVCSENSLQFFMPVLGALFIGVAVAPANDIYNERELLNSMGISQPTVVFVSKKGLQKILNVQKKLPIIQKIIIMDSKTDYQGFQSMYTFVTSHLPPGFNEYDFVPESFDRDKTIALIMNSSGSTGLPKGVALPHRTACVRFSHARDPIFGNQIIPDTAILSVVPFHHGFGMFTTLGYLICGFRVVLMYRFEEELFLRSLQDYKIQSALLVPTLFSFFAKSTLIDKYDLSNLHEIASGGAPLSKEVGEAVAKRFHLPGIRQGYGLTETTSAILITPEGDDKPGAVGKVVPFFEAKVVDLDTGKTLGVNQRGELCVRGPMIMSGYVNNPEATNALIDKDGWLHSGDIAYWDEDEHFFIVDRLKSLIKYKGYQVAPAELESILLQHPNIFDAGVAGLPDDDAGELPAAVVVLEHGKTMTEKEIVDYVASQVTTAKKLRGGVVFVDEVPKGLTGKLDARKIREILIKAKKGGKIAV

[3] = CC_NCI screening, normalized to on-plate 0.3% DMSO controls

Compound | Toxicity Assay Z-score (CTB cell viability) (Clone V cells) | viability at 16 h, 30 µM (in vitro) [%] | Split Luciferase Assay Z-score Set 1 [1] | Split Luciferase Assay % Lum Set 1 [1] [%] | Split Luciferase Assay Z-score Set 2 [1] | Split Luciferase Assay %Lum Set 2 [1] [%] | Split Luciferase Assay %Lum Avg [1] [%] | Luciferase Assay % Lum (full-length luciferase counter-screen) [2, 3] [%] | Luciferase Assay Z-score (full-length luciferase counter-screen) [2, 3] | Z-score (LCA primary screening) ([1]; 30 µM, 384-well, average of primary screening (n = 2), vs on-plate 0.3% DMSO) | IMin (% Luminescence) ([1]; antagonists, Clone V cells, 384-well, normalized to DMSO) | IC50 ([1]; estimated, 8-point dose response 0.25-30 µM, n = 4 per concentration, library compounds, read-out: IC50) [µM] | Luciferase Assay % Lum (full-length luciferase counter-screen) [2] [%] | Luciferase Assay Z-score (full-length luciferase counter-screen) [2]
O=c1cc(N2CCOCC2)oc2c(-c3ccccc3)cccc12 [LY 294002] | -0.14 | 99 | -0.94 | 88.38 | -1.87 | 76.98 | 82.68 | 80.46 | -2.50 |  |  |  |  | 
CN(C)C[C@@H]1CCn2cc(c3ccccc32)C2=C(C(=O)NC2=O)c2cn(c3ccccc23)CCO1 [LY 333531, reference compound] | 0.14 | 101 | -4.72 | 41.64 | -5.94 | 27.05 | 34.34 | 78.46 | -2.76 | −5.33 | 34.34 | 12.2 |  | 
COc1cc(F)c(F)c(Nc2ccc(I)cc2F)c1NS(=O)(=O)C1(C[C@H](O)CO)CC1 [RDEA119] | 0.34 | 102 | -7.09 | 12.28 | -7.37 | 9.36 | 10.82 | 66.81 | -4.25 |  |  |  |  | 
Nc1ncn([C@@H]2O[C@H](CO)[C@@H](O)[C@H]2O)c(=O)n1 [Azacitidine] | 0.41 | 103 | -0.32 | 95.99 | 0.24 | 102.99 | 99.49 | 93.68 | -0.81 |  |  |  |  | 
CCCCC(=O)OCC(=O)[C@]1(O)Cc2c(O)c3c(c(O)c2[C@@H](O[C@H]2C[C@H](NC(=O)C(F)(F)F)[C@H](O)[C@H](C)O2)C1)C(=O)c1c(OC)cccc1C3=O [Valrubicin] | 0.60 | 104 | 2.84 | 135.13 | 1.17 | 114.43 | 124.78 |  |  |  |  |  | 92.36 | -0.98
CS(=O)(=O)c1ccc(C(=O)Nc2ccc(Cl)c(-c3ccccn3)c2)c(Cl)c1 [GDC-0449] | 0.95 | 107 | 3.10 |  | 2.02 | 124.84 | 131.61 | 95.45 | -0.58 |  |  |  |  | 
